Data as given in PMC10408569, “Recruitment of hexahydroquinoline as anticancer scaffold targeting inhibition of wild and mutants EGFR (EGFR^WT, EGFR^T790M, and EGFR^L858R)” (Journal of Enzyme Inhibition and Medicinal Chemistry, 2023).

Legend:
U251 = experiment: NCI-60 anticancer screening (SRB); format: cell-based; details: Homo sapiens, U-251; U251, CNS cancer; one dose 10 μM; read-out: Growth Inhibition Percentage (GI %)
EGFR^WT = EGFR^WT (Homo sapiens, UniProt P00533); experiment: EGFR kinase inhibitory assay (HTRF)
HOP-92 = experiment: NCI-60 anticancer screening (SRB); format: cell-based; details: Homo sapiens; HOP-92, NSC lung cancer; one dose 10 μM; read-out: Growth Inhibition Percentage (GI %)
MALME-3M = experiment: NCI-60 anticancer screening (SRB); format: cell-based; details: Homo sapiens, melanoma, one dose 10 μM, read-out: Growth Inhibition Percentage (GI %)
EKVX = experiment: NCI-60 anticancer screening (SRB); format: cell-based; details: Homo sapiens, NSC lung cancer, one dose 10 μM, read-out: Growth Inhibition Percentage (GI %)
SNB-19 = experiment: NCI-60 anticancer screening (SRB); format: cell-based; details: Homo sapiens; SNB-19, CNS cancer; one dose 10 μM; read-out: Growth Inhibition Percentage (GI %)
RPMI-8226 = experiment: NCI-60 anticancer screening (SRB); format: cell-based; details: Homo sapiens; RPMI-8226, leukemia; one dose 10 μM; read-out: Growth Inhibition Percentage (GI %)
OVCAR-8 = experiment: NCI-60 anticancer screening (SRB); format: cell-based; details: Homo sapiens; OVCAR-8, ovarian cancer; one dose 10 μM; read-out: Growth Inhibition Percentage (GI %)
EGFR^T790M = EGFR^T790M (Homo sapiens, UniProt P00533, T790M); experiment: biochemical
A549/ATCC = experiment: NCI-60 anticancer screening (SRB); format: cell-based; details: Homo sapiens; A549/ATCC, NSC lung cancer; one dose 10 μM; read-out: Growth Inhibition Percentage (GI %)
MDA-MB-468 = experiment: NCI-60 anticancer screening (SRB); format: cell-based; details: Homo sapiens; MDA-MB-468, breast cancer; one dose 10 μM; read-out: Growth Inhibition Percentage (GI %)
PC-3 = experiment: NCI-60 anticancer screening (SRB); format: cell-based; details: Homo sapiens; PC-3, prostate cancer; one dose 10 μM; read-out: Growth Inhibition Percentage (GI %)
HCT-15 = experiment: NCI-60 anticancer screening (SRB); format: cell-based; details: Homo sapiens; HCT-15, colon cancer; one dose 10 μM; read-out: Growth Inhibition Percentage (GI %)
SR = experiment: NCI-60 anticancer screening (SRB); format: cell-based; details: Homo sapiens, leukemia, one dose 10 μM, read-out: Growth Inhibition Percentage (GI %)
ACHN = experiment: NCI-60 anticancer screening (SRB); format: cell-based; details: Homo sapiens, renal cancer, one dose 10 μM, read-out: Growth Inhibition Percentage (GI %)
NCI-H226 = experiment: NCI-60 anticancer screening (SRB); format: cell-based; details: Homo sapiens; NCI-H226, NSC lung cancer; one dose 10 μM; read-out: Growth Inhibition Percentage (GI %)
CCRF-CEM = experiment: NCI-60 anticancer screening (SRB); format: cell-based; details: Homo sapiens, leukemia, one dose 10 μM, read-out: Growth Inhibition Percentage (GI %)
HCT-116 = experiment: NCI-60 anticancer screening (SRB); format: cell-based; details: Homo sapiens; HCT-116, colon cancer; one dose 10 μM; read-out: Growth Inhibition Percentage (GI %)
OVCAR-5 = experiment: NCI-60 anticancer screening (SRB); format: cell-based; details: Homo sapiens; OVCAR-5, ovarian cancer; one dose 10 μM; read-out: Growth Inhibition Percentage (GI %)
SNB-75 = experiment: NCI-60 anticancer screening (SRB); format: cell-based; details: Homo sapiens; SNB-75, CNS cancer; one dose 10 μM; read-out: Growth Inhibition Percentage (GI %)
SF-539 = experiment: NCI-60 anticancer screening (SRB); format: cell-based; details: Homo sapiens; SF-539, CNS cancer; one dose 10 μM; read-out: Growth Inhibition Percentage (GI %)
DU-145 = experiment: NCI-60 anticancer screening (SRB); format: cell-based; details: Homo sapiens; DU-145, prostate cancer; one dose 10 μM; read-out: Growth Inhibition Percentage (GI %)
EGFR^L858R = EGFR^L858R (Homo sapiens, UniProt P00533, L858R); experiment: biochemical
SK-OV-3 = experiment: NCI-60 anticancer screening (SRB); format: cell-based; details: Homo sapiens; SK-OV-3, ovarian cancer; one dose 10 μM; read-out: Growth Inhibition Percentage (GI %)
K-562 = experiment: NCI-60 anticancer screening (SRB); format: cell-based; details: Homo sapiens, K562; K-562, leukemia; one dose 10 μM; read-out: Growth Inhibition Percentage (GI %)
IGROV1 = experiment: NCI-60 anticancer screening (SRB); format: cell-based; details: Homo sapiens, IGROV-1; IGROV1, ovarian cancer; one dose 10 μM; read-out: Growth Inhibition Percentage (GI %)
SF-295 = experiment: NCI-60 anticancer screening (SRB); format: cell-based; details: Homo sapiens; SF-295, CNS cancer; one dose 10 μM; read-out: Growth Inhibition Percentage (GI %)
SK-MEL-28 = experiment: NCI-60 anticancer screening (SRB); format: cell-based; details: Homo sapiens; SK-MEL-28, melanoma; one dose 10 μM; read-out: Growth Inhibition Percentage (GI %)
SF-268 = experiment: NCI-60 anticancer screening (SRB); format: cell-based; details: Homo sapiens; SF-268, CNS cancer; one dose 10 μM; read-out: Growth Inhibition Percentage (GI %)
UACC-257 = experiment: NCI-60 anticancer screening (SRB); format: cell-based; details: Homo sapiens; UACC-257, melanoma; one dose 10 μM; read-out: Growth Inhibition Percentage (GI %)
MDA-MB-435 = experiment: NCI-60 anticancer screening (SRB); format: cell-based; details: Homo sapiens; MDA-MB-435, melanoma; one dose 10 μM; read-out: Growth Inhibition Percentage (GI %)

EGFR^L858R, sequence (P00533 25-1210 L858R): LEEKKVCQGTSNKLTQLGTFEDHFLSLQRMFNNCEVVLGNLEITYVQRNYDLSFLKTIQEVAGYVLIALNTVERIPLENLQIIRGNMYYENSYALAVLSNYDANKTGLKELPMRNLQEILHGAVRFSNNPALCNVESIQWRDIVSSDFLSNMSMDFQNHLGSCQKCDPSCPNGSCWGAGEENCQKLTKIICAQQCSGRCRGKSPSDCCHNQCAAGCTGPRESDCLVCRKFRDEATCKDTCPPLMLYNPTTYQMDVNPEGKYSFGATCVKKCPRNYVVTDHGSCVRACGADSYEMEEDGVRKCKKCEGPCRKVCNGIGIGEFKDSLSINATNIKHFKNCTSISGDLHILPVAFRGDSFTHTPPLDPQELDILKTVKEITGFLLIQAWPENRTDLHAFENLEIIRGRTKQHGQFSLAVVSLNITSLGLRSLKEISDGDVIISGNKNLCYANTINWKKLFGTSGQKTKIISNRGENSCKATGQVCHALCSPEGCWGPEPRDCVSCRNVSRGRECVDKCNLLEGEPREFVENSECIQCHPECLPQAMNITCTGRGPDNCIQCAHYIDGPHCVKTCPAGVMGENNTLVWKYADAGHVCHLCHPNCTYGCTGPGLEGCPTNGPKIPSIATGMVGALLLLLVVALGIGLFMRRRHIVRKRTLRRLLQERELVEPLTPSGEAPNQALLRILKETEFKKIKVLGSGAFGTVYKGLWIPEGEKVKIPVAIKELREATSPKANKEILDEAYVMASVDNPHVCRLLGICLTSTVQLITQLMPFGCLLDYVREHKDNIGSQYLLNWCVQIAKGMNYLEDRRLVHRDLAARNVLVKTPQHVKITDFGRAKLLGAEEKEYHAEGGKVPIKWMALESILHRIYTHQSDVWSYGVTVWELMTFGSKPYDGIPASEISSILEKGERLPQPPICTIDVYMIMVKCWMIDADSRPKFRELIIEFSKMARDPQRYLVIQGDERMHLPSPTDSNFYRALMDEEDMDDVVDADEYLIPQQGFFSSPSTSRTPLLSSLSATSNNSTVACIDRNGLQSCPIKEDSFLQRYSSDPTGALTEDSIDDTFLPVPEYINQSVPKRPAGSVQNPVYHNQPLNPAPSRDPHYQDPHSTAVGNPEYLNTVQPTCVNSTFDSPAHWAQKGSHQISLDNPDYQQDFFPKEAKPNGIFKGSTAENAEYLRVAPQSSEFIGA
EGFR^T790M, sequence (P00533 25-1210 T790M): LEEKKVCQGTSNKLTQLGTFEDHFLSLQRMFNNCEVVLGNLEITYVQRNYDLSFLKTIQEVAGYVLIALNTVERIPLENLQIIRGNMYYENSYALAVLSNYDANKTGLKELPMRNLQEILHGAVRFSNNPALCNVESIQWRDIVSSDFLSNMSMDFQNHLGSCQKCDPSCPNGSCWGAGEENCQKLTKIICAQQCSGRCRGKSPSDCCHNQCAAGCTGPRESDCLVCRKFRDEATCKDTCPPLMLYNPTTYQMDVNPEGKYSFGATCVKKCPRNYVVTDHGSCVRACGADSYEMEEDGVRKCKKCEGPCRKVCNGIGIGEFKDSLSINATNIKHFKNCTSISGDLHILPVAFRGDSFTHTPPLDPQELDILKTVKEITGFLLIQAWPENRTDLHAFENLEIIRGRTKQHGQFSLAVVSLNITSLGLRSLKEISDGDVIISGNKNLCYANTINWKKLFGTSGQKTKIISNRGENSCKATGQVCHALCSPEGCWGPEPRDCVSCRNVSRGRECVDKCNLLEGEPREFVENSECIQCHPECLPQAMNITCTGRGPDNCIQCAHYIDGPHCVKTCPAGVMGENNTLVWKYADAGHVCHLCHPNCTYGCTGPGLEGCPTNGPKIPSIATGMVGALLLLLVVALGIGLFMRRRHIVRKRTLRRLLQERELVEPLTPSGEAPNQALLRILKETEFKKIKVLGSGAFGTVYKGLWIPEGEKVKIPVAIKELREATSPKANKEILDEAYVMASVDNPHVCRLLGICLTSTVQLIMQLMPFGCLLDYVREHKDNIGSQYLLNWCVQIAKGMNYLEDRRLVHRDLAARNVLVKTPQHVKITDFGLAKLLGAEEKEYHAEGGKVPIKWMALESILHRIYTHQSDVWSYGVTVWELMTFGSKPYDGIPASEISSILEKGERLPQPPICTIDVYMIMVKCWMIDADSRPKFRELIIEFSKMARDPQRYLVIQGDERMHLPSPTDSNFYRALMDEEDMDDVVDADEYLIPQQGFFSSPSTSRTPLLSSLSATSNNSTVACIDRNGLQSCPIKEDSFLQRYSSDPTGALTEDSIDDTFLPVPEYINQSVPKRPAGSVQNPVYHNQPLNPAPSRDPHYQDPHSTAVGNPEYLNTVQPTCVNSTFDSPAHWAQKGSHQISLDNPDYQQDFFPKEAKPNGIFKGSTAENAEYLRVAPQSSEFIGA
EGFR^WT, sequence (P00533 25-1210): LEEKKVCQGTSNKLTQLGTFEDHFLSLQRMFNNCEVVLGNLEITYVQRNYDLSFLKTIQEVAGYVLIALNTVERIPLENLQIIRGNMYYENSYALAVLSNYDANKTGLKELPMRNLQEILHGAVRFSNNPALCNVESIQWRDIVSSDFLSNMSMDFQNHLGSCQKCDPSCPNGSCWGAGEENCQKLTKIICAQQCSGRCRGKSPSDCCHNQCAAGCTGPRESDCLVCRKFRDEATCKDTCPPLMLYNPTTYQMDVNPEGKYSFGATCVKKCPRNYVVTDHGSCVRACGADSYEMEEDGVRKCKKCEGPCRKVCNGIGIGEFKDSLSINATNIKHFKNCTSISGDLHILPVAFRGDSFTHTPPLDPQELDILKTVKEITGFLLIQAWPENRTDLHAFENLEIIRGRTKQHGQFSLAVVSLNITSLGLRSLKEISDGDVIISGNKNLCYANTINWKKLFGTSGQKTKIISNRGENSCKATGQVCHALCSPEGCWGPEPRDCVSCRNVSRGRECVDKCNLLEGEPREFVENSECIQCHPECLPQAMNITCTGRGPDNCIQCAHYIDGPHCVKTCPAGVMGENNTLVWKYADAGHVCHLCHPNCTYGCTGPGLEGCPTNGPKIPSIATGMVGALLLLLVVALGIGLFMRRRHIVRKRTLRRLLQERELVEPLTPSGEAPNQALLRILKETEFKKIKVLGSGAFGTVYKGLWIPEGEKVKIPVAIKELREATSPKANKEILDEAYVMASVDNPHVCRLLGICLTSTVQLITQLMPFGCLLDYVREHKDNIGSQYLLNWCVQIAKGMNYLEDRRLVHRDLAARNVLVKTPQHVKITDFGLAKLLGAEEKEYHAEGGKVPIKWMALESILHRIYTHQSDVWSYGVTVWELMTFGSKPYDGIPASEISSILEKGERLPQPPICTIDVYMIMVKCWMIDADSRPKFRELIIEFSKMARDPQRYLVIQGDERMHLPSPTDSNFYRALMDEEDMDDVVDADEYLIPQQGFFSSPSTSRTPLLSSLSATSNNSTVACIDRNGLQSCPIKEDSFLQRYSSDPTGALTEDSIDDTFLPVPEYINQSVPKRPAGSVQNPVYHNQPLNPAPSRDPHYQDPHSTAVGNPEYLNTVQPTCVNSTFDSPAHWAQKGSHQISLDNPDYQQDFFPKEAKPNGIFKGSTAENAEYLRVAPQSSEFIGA

Structure (SMILES)	inhibition at 10 µM (U251)	IC50 (EGFR^WT)	inhibition at 10 µM (HOP-92)	inhibition at 10 µM (MALME-3M)	inhibition at 10 µM (EKVX)	inhibition at 10 µM (SNB-19)	inhibition at 10 µM (RPMI-8226)	inhibition at 10 µM (OVCAR-8)	IC50 (EGFR^T790M)	inhibition at 10 µM (A549/ATCC)	inhibition at 10 µM (MDA-MB-468)	inhibition at 10 µM (PC-3)	inhibition at 10 µM (HCT-15)	inhibition at 10 µM (SR)	inhibition at 10 µM (ACHN)	inhibition at 10 µM (NCI-H226)	inhibition at 10 µM (CCRF-CEM)	inhibition at 10 µM (HCT-116)	inhibition at 10 µM (OVCAR-5)	inhibition at 10 µM (SNB-75)	also measured
CCOC(=O)C1=C(N)N(c2ccc(Cl)cc2)C2=C(C(=O)CC(C)(C)C2)C1c1cccc(Cl)c1Cl (racemic) [10b, (±)-Ethyl 2-amino-1–(4-chorophenyl)-4–(2,3-dichlorophenyl)-7,7-dimethyl-5-oxo-1-phenyl-1,4,5,6,7,8-hexahydroquinoline-3-carboxylate]	22%	0.205 ± 0.09 µM	30%	20%	58%	22%	73%	25%	0.954 ± 0.008 µM	34%	68%	76%	62%	66%	54%	42%	64%	71%	< 10%	22%	inhibition at 10 µM (SF-539): 22%; inhibition at 10 µM (DU-145): 18%; IC50 (EGFR^L858R): 0.878 ± 0.006 µM; inhibition at 10 µM (SK-OV-3): 13%; inhibition at 10 µM (K-562): 71%; inhibition at 10 µM (IGROV1): < 10%; inhibition at 10 µM (SF-295): 26%; inhibition at 10 µM (SK-MEL-28): 16%; inhibition at 10 µM (SF-268): 22%; inhibition at 10 µM (UACC-257): 44%; inhibition at 10 µM (MDA-MB-435): 25%
CCOC(=O)C1=C(N)N(c2ccc(Cl)cc2)C2=C(C(=O)CC(C)(C)C2)C1c1ccc(F)cc1 (racemic) [8b, (±)-Ethyl 2-amino-1–(4-chlorophenyl)-4–(4-fluoroyphenyl)-7,7-dimethyl-5-oxo-1,4,5,6,7,8-hexahydroquinoline-3-carboxylate]	21%	0.186 ± 0.1 µM	21%	< 10%	25%	22%	< 10%	13%	0.65 ± 0.004 µM	12%	17%	35%	34%	< 10%	< 10%	< 10%	26%	34%	< 10%	< 10%	inhibition at 10 µM (SF-539): < 10%; inhibition at 10 µM (DU-145): < 10%; IC50 (EGFR^L858R): 0.77 ± 0.006 µM; inhibition at 10 µM (SK-OV-3): < 10%; inhibition at 10 µM (K-562): < 10%; inhibition at 10 µM (IGROV1): < 10%; inhibition at 10 µM (SF-295): 12%; inhibition at 10 µM (SK-MEL-28): < 10%; inhibition at 10 µM (SF-268): < 10%; inhibition at 10 µM (UACC-257): 11%; inhibition at 10 µM (MDA-MB-435): 11%
CCOC(=O)C1=C(N)N(c2ccc(Cl)cc2)C2=C(C(=O)CC(C)(C)C2)C1c1ccccc1Br (racemic) [6f, (±)-Ethyl 2-amino-4–(2-bromophenyl)-1–(4-chlorophenyl)-7,7-dimethyl-5-oxo-1,4,5,6,7,8-hexahydroquinoline-3-carboxylate]	40%	0.313 ± 0.12 µM	13%	18%	25%	11%	< 10%	14%	0.59 ± 0.004 µM	31%	53%	71%	53%	< 10%	20%	14%	33%	60%	< 10%	16%	inhibition at 10 µM (SF-539): < 10%; inhibition at 10 µM (DU-145): < 10%; IC50 (EGFR^L858R): 0.48 ± 0.003 µM; inhibition at 10 µM (SK-OV-3): < 10%; inhibition at 10 µM (K-562): < 10%; inhibition at 10 µM (IGROV1): < 10%; inhibition at 10 µM (SF-295): 18%; inhibition at 10 µM (SK-MEL-28): < 10%; inhibition at 10 µM (SF-268): 17%; inhibition at 10 µM (UACC-257): 42%; inhibition at 10 µM (MDA-MB-435): < 10%
